PubChem BioAssay (NCI)
Where “and” joins values, the source holds several entries; their conditions need not be identical. Identical values can stand only once.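 Briefly, cells in 96-well plates were exposed to five compound concentrations for 48 h, and endpoints were estimated by linear interpolation. At the GI50, growth is halved. At the TGI there is no net growth.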

Key:
Experiment in all cases: inhibition of tumour cell growth, NCI panel, 48 h
HS 578T breast = system: HS 578T breast
UACC-62 melanoma = system: UACC-62 melanoma
SK-MEL-28 melanoma = system: SK-MEL-28 melanoma
MCF7 breast = system: MCF7 breast
MDA-N = system: MDA-N
A549 NSCLC = system: A549 NSCLC
HL-60(TB) leukemia = system: HL-60(TB) leukemia
UO-31 renal = system: UO-31 renal
NCI-H226 lung = system: NCI-H226 lung

SMILES | TGI (HS 578T breast) [µM] | TGI (UACC-62 melanoma) | TGI (SK-MEL-28 melanoma) | TGI (MCF7 breast) | TGI (MDA-N) | TGI (A549 NSCLC) | TGI (HL-60(TB) leukemia) | TGI (UO-31 renal) | TGI (NCI-H226 lung) [µM] | GI50 (HS 578T breast) [µM] | GI50 (UACC-62 melanoma) [µM] | GI50 (SK-MEL-28 melanoma) [µM] | GI50 (MCF7 breast) [µM] | GI50 (A549 NSCLC) [µM] | GI50 (NCI-H226 lung) [µM] | GI50 (MDA-N) [µM] | GI50 (HL-60(TB) leukemia) [µM] | GI50 (UO-31 renal) [µM]
CCCCOP(=O)(OCCCC)C(NS(=O)(=O)c1ccccc1)(C(=O)OCC)C(F)(F)F (stereo not given) | > 100 | > 100 µM | 78.8 µM | 76.1 µM | > 100 µM | > 100 µM | 47.8 µM | > 100 µM | 74.9 | – | – | – | – | – | – | – | – | –
Cc1ccc(N=c2oc3c(ccc4ccccc43)nc2Nc2ccc(C)cc2)cc1 | > 100 | > 100 µM | > 100 µM | – | > 100 µM | > 100 µM | > 100 µM | > 100 µM | > 100 | – | – | – | – | – | – | – | – | –
O=C(O)C(C1NCCS1)N1Cc2ccccc2C1 (stereo not given) | – | > 100 µM | > 100 µM | > 100 µM | > 100 µM | > 100 µM | > 100 µM | > 100 µM | > 100 | – | – | – | – | – | – | – | – | –
CN(C)c1ccc(C(=C2C=CC(=[N+](C)C)C=C2)c2c(O)c(S(=O)(=O)[O-])cc3cc(S(=O)(=O)O)ccc23)cc1 | > 100 | > 100 µM | > 100 µM | > 100 µM | > 100 µM | > 100 µM | – | > 100 µM | > 100 | – | – | – | – | – | – | – | – | –
COc1c(Cl)ccc(Cl)c1-c1nnc(-c2c(Cl)c(Cl)c(Cl)c(Cl)c2-c2nc3ccc(C(=O)c4ccccc4)cc3[nH]2)o1 | > 100 | – | > 100 µM | > 100 µM | 46.4 µM | > 100 µM | > 100 µM | > 100 µM | 78.5 | – | – | – | – | – | – | – | – | –
CC(=O)O/N=C1\C=Cc2c(no[n+]2[O-])C1=O | 56.3 | 30.2 µM | 36.9 µM | 45.4 µM | 33.1 µM | 31.1 µM | – | 28.3 µM | > 100 | – | – | – | – | – | – | – | – | –
O=C1OS2(OC(=O)c3cccc4cccc2c34)c2ccccc21 (stereo not given) | > 100 | – | > 100 µM | > 100 µM | > 100 µM | > 100 µM | > 100 µM | > 100 µM | > 100 | – | – | – | – | – | – | – | – | –
C(=C/c1ccc2nc(-c3ccc(/C=C/C=N/NC4=NCCCN4)cc3)cn2c1)/C=N/NC1=NCCCN1 | 42.2 | > 100 µM | > 100 µM | – | > 100 µM | 22 µM | – | > 100 µM | 32.6 | – | – | – | – | – | – | – | – | –
CS(=O)(=O)c1nc(-c2cc3c(c(S(C)(=O)=O)n2)CCC3)cc2c1CCC2 | – | > 100 µM | > 100 µM | – | > 100 µM | > 100 µM | > 100 µM | > 100 µM | > 100 | – | – | – | – | – | – | – | – | –
S=c1sc2ccccc2n1CN1CCN(Cc2ccccc2)CC1 | > 100 | > 100 µM | – | > 100 µM | – | > 100 µM | > 100 µM | > 100 µM | > 100 | – | – | – | – | – | – | – | – | –
NCCCCN(CCCN)C(=O)OCc1ccccc1 | > 100 | > 100 µM | > 100 µM | > 100 µM | – | > 100 µM | > 100 µM | > 100 µM | > 100 | – | – | – | – | – | – | – | – | –
O=C(/C=C/c1ccco1)c1ccc(Nc2ccnc3cc(Cl)ccc23)cc1 | > 100 | > 100 µM | > 100 µM | 4.55 µM | – | > 100 µM | – | – | > 100 | > 100 | > 100 | 74.9 | 1.46 | > 100 | > 100 | – | – | –
CCOC(=O)C(C(N)=O)c1nc2cc([N+](=O)[O-])ccc2nc1/C=C(\O)c1ccc(C)cc1 (stereo not given) | 75.1 | > 72.3 µM | > 71.1 µM | > 60.5 µM | > 100 µM | > 74.1 µM | – | 49 µM | > 100 | – | – | – | – | – | – | – | – | –
Cn1c(=O)c2[nH]c(Nc3ccccc3)nc2n(C)c1=O | – | > 10 µM | > 10 µM | > 10 µM | > 10 µM | > 10 µM | > 10 µM | – | – | – | – | – | – | – | – | – | – | –
O=c1[nH]c(=O)n(COCCO)cc1-c1ccccc1 | > 100 | > 100 µM | > 100 µM | > 100 µM | > 100 µM | > 100 µM | > 100 µM | > 100 µM | – | – | – | – | – | – | – | – | – | –
Oc1cccc(-c2cc(=S)ss2)c1 | 36.9 | 38.2 µM | 43.8 µM | 27.5 µM | – | 44.5 µM | 48.5 µM | 28.5 µM | 41 | – | – | – | – | – | – | – | – | –
CC1CN=C(c2ccc3c(c2)Cc2cc(C4=NCC(C)N4)ccc2-3)N1 (stereo not given) | > 100 | 99 µM | > 100 µM | 65.3 µM | > 100 µM | > 100 µM | – | > 100 µM | > 100 | – | – | – | – | – | – | – | – | –
CC(=O)Nc1ccc(S(=O)(=O)/N=c2/sc(S(N)(=O)=O)nn2C)cc1 | – | > 100 µM | > 100 µM | – | – | > 100 µM | > 100 µM | > 100 µM | > 100 | – | – | – | – | – | – | – | – | –
COC(=O)c1ccc2c(c1)CCN2C(=O)c1cc2c(cc1Br)OCO2 | – | 50 µM and > 100 µM | 50 µM and > 100 µM | 50 µM and > 100 µM | 0.244 µM and 0.841 µM | 50 µM and > 100 µM | 10.2 µM and 17.1 µM | 24.8 µM and 72.1 µM | 4.44 | – | 0.995 | 19.2 | 0.567 | 3.27 | – | 0.252 | 0.31 | 0.817
C=CCCCN1C(=O)C2C3c4ccccc4C(C=O)(c4ccccc43)C2C1=O (stereo not given) | – | 36.6 µM | 31.9 µM | 28.5 µM | 27.9 µM | 35.9 µM | 34.5 µM | 26 µM | – | – | – | – | – | – | – | – | – | –
O=C(O)CC(Cc1ccccc1)C(=O)O (stereo not given) | > 100 | > 100 µM | > 100 µM | > 100 µM | > 100 µM | > 100 µM | – | > 100 µM | > 100 | – | – | – | – | – | – | – | – | –
CC(C)OCC(O)COc1cc(=O)oc2ccccc12 (stereo not given) | > 100 | > 100 µM | > 100 µM | > 100 µM | > 100 µM | > 100 µM | > 100 µM | > 100 µM | – | – | – | – | – | – | – | – | – | –
c1ccc2c(c1)N=c1ccccc1=P21c2ccccc2Nc2ccccc21 | 3.89 | > 100 µM | 11.7 µM | 5.74 µM | 4.07 µM | 15.3 µM | – | 27 µM | 3.65 | – | – | – | – | – | – | – | – | –
COC(=O)[C@@]12CC3CN(Cc4c1[nH]c1ccccc41)C2CC3=O | – | > 100 µM | > 100 µM | > 100 µM | > 100 µM | > 100 µM | > 100 µM | – | > 100 | – | – | – | – | – | – | – | – | –
